The text below walks through data of ChEMBL document CHEMBL1147642, “Elimination of antibacterial activities of non-peptide luteinizing hormone-releasing hormone (LHRH) antagonists derived from erythromycin A” (Bioorg Med Chem Lett, 2004).

The subject of one assay is Staphylococcus aureus. The assay is described as follows: Minimum inhibitory activity against Staphylococcus aureus ATCC 6538P. Format: functional.
For assay [1], the target named is T1, Gonadotropin-releasing hormone receptor (Homo sapiens, UniProt P30968).
T1 sequence (P30968 whole entry): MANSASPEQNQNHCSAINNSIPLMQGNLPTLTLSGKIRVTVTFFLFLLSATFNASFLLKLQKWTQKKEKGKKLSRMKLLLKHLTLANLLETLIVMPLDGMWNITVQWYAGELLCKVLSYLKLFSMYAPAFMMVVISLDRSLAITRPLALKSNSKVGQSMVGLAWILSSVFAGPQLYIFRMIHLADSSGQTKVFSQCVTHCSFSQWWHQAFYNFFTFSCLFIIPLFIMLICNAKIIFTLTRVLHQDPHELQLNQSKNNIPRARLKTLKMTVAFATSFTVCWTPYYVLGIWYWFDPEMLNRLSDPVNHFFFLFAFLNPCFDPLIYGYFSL
The assay is described as follows: Binding affinity against human luteinizing releasing hormone receptor cloned in CHO cells. Format: cell-based.

Another assay deals with Streptococcus pyogenes. The assay is described as follows: Minimum inhibitory activity against Streptococcus pyogenes EES61. Format: functional.
Another assay has as its system Enterococcus faecium. As to the kind of experiment: Minimum inhibitory activity against Enterococcus faecium ATCC 8043. Format: functional.
The test system of a further assay is Streptococcus agalactiae. The assay is described as follows: Minimum inhibitory activity against Streptococcus agalactiae CMX 508. The class given is functional.
The next assay relates to Micrococcus luteus. The assay is described as follows: Minimum inhibitory activity against Micrococcus luteus ATCC 9341. The class given is functional.
The next assay concerns Streptococcus equinus. The assay is described as follows: Minimum inhibitory activity against Streptococcus bovis A-5169. Format: functional.
The subject of assay [2] is Staphylococcus epidermidis. The assay is described as follows: Minimum inhibitory activity against Staphylococcus epidermidis 3519. Format: functional.

Structures are written as SMILES. In brackets after ≈: the same amount, converted by molar mass.

By MIC is commonly meant the lowest concentration found to suppress growth. A higher MIC goes with a need for much substance. What is called Ki is the dissociation constant of the complex between target and ligand, obtained from inhibition or displacement. A higher Ki goes with weaker binding. Consider `CC[C@H]1OC(=O)[C@H](C)[C@@H](OC(=O)N2C(=O)OC[C@@H]2C)[C@H](C)[C@@H](OC2O[C@H](C)C[C@H](N(CC3CC3)CC3CC3)[C@H]2O)[C@@](C)(OC)C[C@@H](C)C(=O)[C@H](C)[C@H]2N(CCc3ccc(Cl)c(Cl)c3)C(=O)O[C@]12C` (stereo not given in full), for which the minimum inhibitory concentration (MIC) in the assay on Staphylococcus aureus is over 100 µg/mL; with Streptococcus pyogenes it was 50 µg/mL (≈ 50.2 µM); against Enterococcus faecium it was over 100 µg/mL; against Streptococcus agalactiae it was 100 µg/mL (≈ 100 µM); against Micrococcus luteus it was 100 µg/mL (≈ 100 µM); with Streptococcus equinus it was 50 µg/mL (≈ 50.2 µM). In addition, the MIC in assay [2] was over 100 µg/mL. The compound further had a Ki in assay [1] of 1.29 nM.

For `CC[C@H]1OC(=O)[C@H](C)[C@@H](OC(=O)N2C(=O)OC[C@@H]2C)[C@H](C)[C@@H](OC2O[C@H](C)C[C@H](N(C)C3CCCCC3)[C@H]2O)[C@@](C)(OC)C[C@@H](C)C(=O)[C@H](C)[C@H]2N(CCc3ccc(Cl)c(Cl)c3)C(=O)O[C@]12C` (stereo not given in full), the MIC was over 100 µg/mL against Staphylococcus aureus; 6.2 µg/mL (≈ 6.31 µM) against Streptococcus pyogenes; over 100 µg/mL in the assay on Enterococcus faecium; 6.2 µg/mL (≈ 6.31 µM) in the assay with Streptococcus agalactiae; over 100 µg/mL against Micrococcus luteus; 6.2 µg/mL (≈ 6.31 µM) in the assay on Streptococcus equinus. This compound also displayed an MIC in assay [2] of over 100 µg/mL. Also, the inhibitory constant (Ki) in assay [1] was 7.24 nM.

Take `CC[C@H]1OC(=O)[C@H](C)[C@@H](OC(=O)N2C(=O)OC[C@@H]2C)[C@H](C)[C@@H](OC2O[C@H](C)C[C@H](N(C)C3CCCC3)[C@H]2O)[C@@](C)(OC)C[C@@H](C)C(=O)[C@H](C)[C@H]2N(CCc3ccc(Cl)cc3)C(=O)O[C@]12C` (stereo not given in full): the MIC is over 100 µg/mL against Staphylococcus aureus; 3.1 µg/mL (≈ 3.32 µM) against Streptococcus pyogenes; 6.2 µg/mL (≈ 6.63 µM) with Enterococcus faecium; 3.1 µg/mL (≈ 3.32 µM) against Streptococcus agalactiae; 12.5 µg/mL (≈ 13.4 µM) in the assay with Micrococcus luteus; 3.1 µg/mL (≈ 3.32 µM) with Streptococcus equinus. This compound also registered an MIC in assay [2] of over 100 µg/mL. This compound showed an inhibitory constant (Ki) in assay [1] of 3.89 nM.

Take `CC[C@H]1OC(=O)[C@H](C)[C@@H](OC2C[C@@](C)(OC)[C@@H](O)[C@H](C)O2)[C@H](C)[C@@H](OC2O[C@H](C)C[C@H](N(C)C3CCCC3)[C@H]2O)[C@@](C)(OC)C[C@@H](C)C(=O)[C@H](C)[C@H]2N(CCc3ccc(Cl)c(Cl)c3)C(=O)O[C@]12C` (stereo not given in full): the minimum inhibitory concentration (MIC) in the assay with Staphylococcus aureus is over 100 µg/mL; in the assay with Streptococcus pyogenes, 3.1 µg/mL (≈ 3.1 µM); against Enterococcus faecium, 3.1 µg/mL (≈ 3.1 µM); in the assay on Streptococcus agalactiae, 3.1 µg/mL (≈ 3.1 µM); with Micrococcus luteus, 3.1 µg/mL (≈ 3.1 µM); against Streptococcus equinus, 3.1 µg/mL (≈ 3.1 µM). The same compound came in with an MIC in assay [2] of over 100 µg/mL. This compound gave an inhibition constant Ki in assay [1] of 1.51 nM.

For `CC[C@H]1OC(=O)[C@H](C)[C@@H](OC2C[C@@](C)(OC)[C@@H](O)[C@H](C)O2)[C@H](C)[C@@H](OC2O[C@H](C)C[C@H](N(C)C3CCCCC3)[C@H]2O)[C@@](C)(OC)C[C@@H](C)C(=O)[C@H](C)[C@H]2N(CCc3ccc(Cl)cc3)C(=O)O[C@]12C` (stereo not given in full), the MIC against Staphylococcus aureus was over 100 µg/mL; against Streptococcus pyogenes, 0.78 µg/mL (≈ 0.796 µM); against Enterococcus faecium, 25 µg/mL (≈ 25.5 µM); with Streptococcus agalactiae it was 12.5 µg/mL (≈ 12.8 µM); against Micrococcus luteus it was 12.5 µg/mL (≈ 12.8 µM); against Streptococcus equinus, 3.1 µg/mL (≈ 3.16 µM). Besides, in assay [2], the minimal inhibitory concentration (MIC) is over 100 µg/mL. The compound also had a Ki in assay [1] of 204 nM.
